Measurements: US20140199372A1, “MICROBIAL GROWTH FACTORS” (NORTHEASTERN UNIVERSITY, priority 2011, published 2014)
Like-named read-outs stand apart in the source and are kept apart here.

Columns and labels:
KLE1280 = experiment: Induction of growth of KLE1280 by quinones on plates; format: cell-based, Porphyromonas sp. KLE1280
Method: Serial dilutions of dental plaque from a healthy individual were spread onto Fastidious Anaerobe Agar plates containing 5% sheep blood and 5% pooled human saliva (FBS) and incubated anaerobically. Small colonies growing next to large ones on dense plates were picked and spread onto fresh FBS plates. A helper mix of colonies growing around individual small colonies was spotted on these plates. Isolates were identified that depended for growth on this mix. If E. coli produces a growth factor, its identification can be efficiently performed, since a complete knockout library of this species is available. Testing knockout mutants identifies those that lost their ability to help growth of the uncultured organism, which then leads to the identification of the biosynthetic pathway of the growth factor. […] This organism is closely related to Porphyromonas sp. oral taxon 279 (99% similarity by 16S rRNA gene sequencing) (96% similarity to closest type strain Porphyromonas catoniae). In particular, KLE1280 is closely related to Porphyromonas catoniae (96% similarity by 16S rRNA gene sequencing). […] This deletion mutant has the menaquinone biosynthesis genes deleted. […] 5 genes in the menaquinone biosynthesis pathway are knocked out in this mutant (http://www.shigen.nig.ac.jp/ecoli/pec/quickSearch.List.DeletionsDetailAction.do?fromListFlag=true&classId=4&deId=226). E. coli strains with single gene deletions in the menaquinone biosynthesis pathway were tested for induction of growth.
Different quinones (Q), commercially available and/or isolated from E. coli and Micrococcus luteus were tested for induction of growth of KLE1280.
Different concentrations of MK4 were spotted on media with and without blood (5%) or hemin (10 μg/ml) or hemoglobin (100 μg/ml).

Flaviramulus sp. KLE1215 = experiment: Growth of KLE1215 in liquid culture with quinones delivered in liposomes; format: cell-based; conditions: R2A broth, 50% artificial sea salts, 0.001% Fe(II), MK4 250 μM to 1.5 mM, MK6 and MK6 chromenols purified from KLE1215
Method: The growth of Flaviramulus sp. KLE1215 is enhanced by the addition of purified quinone-like compounds when they are delivered in liposomes. […] Growth of KLE1215 induced with varying concentrations of MK4 delivered in liposomes. 5 ml liquid cultures of KLE1215 were set up with no supplement (squares), empty liposomes as liposome control (triangles), liposomes loaded with 250 μM MK4 (cross), liposomes loaded with 500 μM MK4 liposomes (asterisk), liposomes loaded with 750 μM MK4 (circle), liposomes loaded with 1 mM MK4 (vertical line), liposomes loaded with 1.25 mM MK4 (dark line), and liposomes loaded with 1.5 mM MK4 (light line) is shown in FIG. 8. […] broth (without yeast extract) with 50% artificial sea salts supplemented with 0.001% Fe(II) was used for these cultures. Values represent the average of two independent cultures of KLE1215 in […] broth with 50% artificial sea salts supplemented with 0.001% Fe(II). […] 5 ml liquid cultures of KLE1215 were prepared with nothing added (squares), empty liposome as liposome control (triangles), liposomes loaded with MK6 from KLE1215 (cross), and liposomes loaded with MK6 chromenols from KLE1215 (asterisk). R2A broth (without yeast extract) with 50% artificial sea salts supplemented with 0.001% Fe(II) was used for these cultures. Values represent the average of independent cultures of KLE1215 in […] broth with 50% artificial sea salts supplemented with 0.001% Fe(II).

Bizinio sp. KLE1402 = experiment: Growth of KLE1402 in liquid culture with quinone-loaded liposomes; format: cell-based; conditions: delivered by liposomes loaded with 500 μM MK4; R2A broth, 50% sea salts, 0.001% Fe(II)
Text: Two isolates were streaked for isolation; the culturable helper on the left induces the growth of unculturable KLE1402 on the right only when it is close proximity. The closest relative to the dependent KLE1402 is Bizionia echini (96.6% Identity according to 16S rRNA gene sequence), from the family Flavobacteriaceae. The closest relative to the helper KLE1403 is Ruegeria lacuscaerulensis (98.4% identity by 16S rRNA gene sequence), from the class Alphaproteobacteria. E. coli induces the growth of KLE1402 (FIG. 11). KLE1402 spread evenly on R2A with 50% artificial sea salts and 0.001% Fe(II) with a dense spot of E. coli. […] KLE1402 spread evenly on R2A with 50% artificial sea salts and 0.001% Fe(II) with a dense spot of E. coli ΔubiG. KLE1402 grows with the addition of quinone-loaded liposomes (FIG. 13). Cells of KLE1402 were used to inoculate culture tubes with 5 ml R2A broth with 50% sea salts and 0.001% Fe(II). Tube A: no supplement, Tube B: Empty liposomes added, Tube C: Liposomes loaded with 500 μM MK4 added. KLE1402 grows with the addition of quinone-loaded liposomes (FIG. 14). 5 ml liquid cultures of KLE1402 were set up with no supplement (squares), empty liposomes as liposome control (triangles), liposomes loaded with 500 μM MK4 (cross). R2A broth with 50% artificial sea salts supplemented with 0.001% Fe(II) was used as media for these cultures. […]

[1] = quinone isolated from M. luteus

COC1=C(OC)C(=O)C(CC=C(C)C)=C(C)C1=O [Q1] was tested, and the “Results: induction of growth of KLE1280” value (KLE1280; quinone commercially available) was “No induction”.
In the case of O=C(O)c1cc(O)c2ccccc2c1O [DHNA, 1,4-dihydroxy-2-naphthoate], the “induction of growth of KLE1280” value (KLE1280) is reported as “showed induction of growth”.
With menachromenal 6 [MK6 chromenols] the “growth of KLE1215” value (Flaviramulus sp. KLE1215) was “growth-enhancing effects”.
COC1=C(OC)C(=O)C(C/C=C(\C)CC/C=C(\C)CC/C=C(\C)CC/C=C(\C)CC/C=C(\C)CC/C=C(\C)CC/C=C(\C)CC/C=C(\C)CC/C=C(\C)CCC=C(C)C)=C(C)C1=O [Q10] was tested, and the “Results: induction of growth of KLE1280” value (KLE1280; quinone commercially available) was “No induction”.
CC(C)=CCC/C(C)=C/CC/C(C)=C/CC/C(C)=C/CC/C(C)=C/CC1=C(C)C(=O)c2ccccc2C1=O [Menaquinone5] was tested, and the “Results: induction of growth of KLE1280” value (KLE1280; [1]) was “Induction”.
With COC1=C(OC)C(=O)C(C/C=C(\C)CC/C=C(\C)CC/C=C(\C)CC/C=C(\C)CC/C=C(\C)CC/C=C(\C)CC/C=C(\C)CC/C=C(\C)CCC=C(C)C)=C(C)C1=O [Q9] the “Results: induction of growth of KLE1280” value (KLE1280; quinone commercially available) was “No induction”.
In the case of hemin, the “induction of growth of KLE1280” value (KLE1280; substance alone) is reported as “did not induce growth”.
In the case of COC1=C(OC)C(=O)C(C/C=C(\C)CCC=C(C)C)=C(C)C1=O [Q2], the “Results: induction of growth of KLE1280” value (KLE1280; quinone commercially available) is reported as “No induction”.
For CC(C)=CCC/C(C)=C/CC/C(C)=C/CC/C(C)=C/CC/C(C)=C/CC/C(C)=C/CC/C(C)=C/CC/C(C)=C/CC1=C(C)C(=O)c2ccccc2C1=O [Menaquinone8], the “Results: induction of growth of KLE1280” value (KLE1280; quinone isolated from E. coli) was “No induction” and the “Results: induction of growth of KLE1280” value (KLE1280; [1]) was “Very less induction (late)”.
In the case of COC1C(=O)C(C)=C(C/C=C(\C)CC/C=C(\C)CC/C=C(\C)CCC=C(C)C)C(=O)C1OC (stereo not drawn) [Q4], the “Results: induction of growth of KLE1280” value (KLE1280; quinone commercially available) is reported as “No induction”.
With CC(C)=CCC/C(C)=C/CC/C(C)=C/CC/C(C)=C/CC1=C(C)C(=O)c2ccccc2C1=O [Menaquinone4] the “growth of KLE1402” value (Bizinio sp. KLE1402) was “can induce the growth”, the “growth of KLE1215” value (Flaviramulus sp. KLE1215) was “growth-enhancing effects” and the “induction of growth of KLE1280” value (KLE1280) was “induced growth”. For the same compound, the “Results: induction of growth of KLE1280” value (KLE1280; quinone commercially available) was “Induction”, the “Results: induction of growth of KLE1280” value (KLE1280; [1]) was “Induction” and the “induction of growth of KLE1280” value (KLE1280; spotted on media with blood (5%) or hemin (10 μg/ml) or hemoglobin (100 μg/ml)) was “induced growth only in the presence of either of these 3 in the medium”. The “induction of growth of KLE1280” value (KLE1280; substance alone) was “did not induce growth”.
With CC(C)=CCC/C(C)=C/CC/C(C)=C/CC/C(C)=C/CC/C(C)=C/CC/C(C)=C/CC/C(C)=C/CC1=C(C)C(=O)c2ccccc2C1=O [Menaquinone7] the “Results: induction of growth of KLE1280” value (KLE1280; [1]) was “Very less induction (late)”.
In the case of COC1=C(OC)C(=O)C(C/C=C(\C)CC/C=C(\C)CC/C=C(\C)CC/C=C(\C)CC/C=C(\C)CC/C=C(\C)CCC=C(C)C)=C(C)C1=O [Ubiquinone7], the “Results: induction of growth of KLE1280” value (KLE1280; quinone isolated from E. coli) is reported as “No induction”.
In the case of hemoglobin, the “induction of growth of KLE1280” value (KLE1280; substance alone) is reported as “did not induce growth”.
With COC1=C(OC)C(=O)C(C/C=C(\C)CC/C=C(\C)CC/C=C(\C)CC/C=C(\C)CC/C=C(\C)CC/C=C(\C)CC/C=C(\C)CCC=C(C)C)=C(C)C1=O [Ubiquinone8] the “Results: induction of growth of KLE1280” value (KLE1280; quinone isolated from E. coli) was “No induction”.
For CC(C)=CCC/C(C)=C/CC/C(C)=C/CC/C(C)=C/CC/C(C)=C/CC/C(C)=C/CC1=C(C)C(=O)c2ccccc2C1=O [Menaquinone6], the “growth of KLE1215” value (Flaviramulus sp. KLE1215) was “growth-enhancing effects” and the “Results: induction of growth of KLE1280” value (KLE1280; [1]) was “Induction”.
